Measured values published in patent US20240251792A1, “WEED CONTROL METHOD” (SYNGENTA CROP PROTECTION AG, priority 2021, published 2024).
Where two headings read alike, the source gives them in different places.

Legend:
Type in all cases: in vivo
[1] = system: weeds and/or crops; assay: Post-emergence biological efficacy (Table 4); conditions: 312 h, 1000 g/ha, evaluated after 13 days
Description: (§1) Seeds of weeds and/or crops were sown in standard soil in pots. After cultivation for 14 days under controlled conditions in a glasshouse (at 24/19° C., day/night; 16 hours light), the plants were sprayed with an aqueous spray solution derived from the formulation of the technical active ingredient in a small amount of acetone and a special solvent and emulsifier mixture referred to as F50 (11.12% Emulsogen EL360 TM+44.44% N-methylpyrrolidone+44.44% Dowanol DPM glycol ether), to create a 50 g/l solution which was then diluted using 0.2% Genapol X080 as diluent to give the desired final dose of test compound.
(§2) The test plants were then grown under controlled conditions in the glasshouse (at 24/18° C., day/night; 15 hours light; 50% humidity) and watered twice daily. After 13 days the test was evaluated (100=total damage to plant; 0=no damage to plant).

[2] = system: STEME; assay: Pre-emergence biological efficacy (Table 3); conditions: 312 h, after 13 days, read-out: evaluation (100=total damage to plant; 0=no damage to plant)
Description: as §1, with “one day” for “14 days”, “AMA” for “F50”
as §2

[3] = system: AMARE; assay: Pre-emergence biological efficacy (Table 3); conditions: Amaranthus retroflexus, 312 h, 1000 g/ha, after 13 days, read-out: evaluation (100=total damage to plant; 0=no damage to plant)
Description: as §1, with “one day” for “14 days”, “AMA” for “F50”
as §2

[4] = system: ABUTH; assay: Pre-emergence biological efficacy (Table 3); conditions: Abutilon theophrasti, 312 h, after 13 days, read-out: evaluation (100=total damage to plant; 0=no damage to plant)
Description: as §1, with “one day” for “14 days”, “AMA” for “F50”
as §2

[5] = system: IPOHE; assay: Pre-emergence biological efficacy (Table 3); conditions: Ipomoea hederacea, 312 h, 1000 g/ha, after 13 days, read-out: evaluation (100=total damage to plant; 0=no damage to plant)
Description: as §1, with “one day” for “14 days”, “AMA” for “F50”
as §2

[6] = system: ECHCG; assay: Pre-emergence biological efficacy (Table 3); conditions: Echinochloa crus-galli, 312 h, 1000 g/ha, after 13 days, read-out: evaluation (100=total damage to plant; 0=no damage to plant)
Description: as §1, with “one day” for “14 days”, “AMA” for “F50”
as §2

[7] = system: ZEAMX; assay: Pre-emergence biological efficacy (Table 3); conditions: 312 h, 1000 g/ha, after 13 days, read-out: evaluation (100=total damage to plant; 0=no damage to plant)
Description: as §1, with “one day” for “14 days”, “AMA” for “F50”
as §2

[8] = STEME, read-out: damage to plant STEME (100=total damage; 0=no damage)
[9] = ZEAMX, read-out: damage to plant ZEAMX (100=total damage; 0=no damage)
[10] = Abutilon theophrasti, ABUTH, read-out: damage to plant ABUTH (100=total damage; 0=no damage)
[11] = Amaranthus retroflexus, AMARE, read-out: damage to plant AMARE (100=total damage; 0=no damage)
[12] = Echinochloa crus-galli, ECHCG, read-out: damage to plant ECHCG (100=total damage; 0=no damage)
[13] = Ipomoea hederacea, IPOHE, read-out: damage to plant IPOHE (100=total damage; 0=no damage)

Row | SMILES | pest or weed control at 1000 g/ha [1, 8] [%] | pest or weed control at 1000 g/ha [1, 9] [%] | pest or weed control at 1000 g/ha [1, 10] [%] | pest or weed control at 1000 g/ha [1, 11] [%] | pest or weed control at 1000 g/ha [1, 12] [%] | pest or weed control at 1000 g/ha [1, 13] [%] | pest or weed control at 1000 g/ha [2] [%] | pest or weed control at 1000 g/ha [3] [%] | pest or weed control at 1000 g/ha [4] [%] | pest or weed control at 1000 g/ha [5] [%] | pest or weed control at 1000 g/ha [6] [%] | plant injury at 1000 g/ha [7] [%]
1 | O=C(O)C(F)(F)c1cccc([N+](=O)[O-])c1Cl [Compound 7-237, Ammonium 2-(2-chloro-3-nitro-phenyl)-2,2-difluoro-acetate] | 0 | 0 | 0 | 50 | 10 | 60 | 0 | 0 | 10 | 50 | 0 | 0
2 | Nc1c(Cl)ccc(Cl)c1C(F)(F)C(=O)O [Compound 7-254, 2-(2-amino-3,6-dichlorophenyl)-2,2-difluoroacetic acid] | 60 | 20 | 30 | 50 | 0 | 30 | 30 | 20 | 40 | 10 | 0 | 10
3 | O=C(O)C(F)(F)c1cccc2c1OC(F)(F)O2 [Compound 1-385, 2-(2,2-Difluoro-1,3-benzodioxol-4-yl)-2,2-difluoro-acetic acid] | 100 | 40 | 90 | 90 | 50 | 70 | 50 | 60 | 90 | 70 | 50 | 50
4 | COc1cccc(C(F)(F)C(=O)O)c1Cl [Compound 1-209, 2-(2-Chloro-3-methoxyphenyl)-2,2-difluoroacetic acid] | 90 | 10 | – | 80 | 10 | 80 | 60 | 70 | 60 | 80 | 0 | 0
5 | Nc1cc(Cl)cc(C(F)(F)C(=O)O)c1Cl [Compound 1-235, 2-(3-Amino-2,5-dichlorophenyl)-2,2-difluoroacetic acid] | 50 | 20 | – | 70 | 20 | 30 | 30 | 40 | 30 | 20 | 10 | 0
6 | CSc1cccc(C(F)(F)C(=O)O)c1Cl [Compound 1-220, 2-(2-Chloro-3-methylsulfanyl-phenyl)-2,2-difluoro-acetic acid] | 70 | 10 | – | 70 | 0 | 70 | 50 | 50 | 80 | 70 | 0 | 10
